Data from paper PMC6060961, “Synthesis of unsymmetrical disulfanes bearing 1,2,4-triazine scaffold and their in vitro screening towards anti-breast cancer activity” (Monatshefte Fur Chemie, 2018).
Read-outs that look alike come from different tables or passages of the source.

What was measured:
[1] = system: MCF-7 breast cancer cells; test: DNA synthesis assay ([3H]-thymidine incorporation), MCF-7; assay type: cell-based, human
Procedure: We studied the effect of compounds 4a–4n and chlorambucil on DNA synthesis in MCF-7 breast cancer cells (Table 3).
(§1) Cultured normal human skin fibroblasts and MCF-7 human breast cancer cells were maintained in DMEM supplemented with 10% fetal bovine serum (FBS), 50 U/cm^3 penicillin, and 50 μg/cm^3 streptomycin at 37 °C. Cells were cultured in Costar flasks and subconfluent cells were detached with 0.05% trypsin and 0.02% EDTA in calcium-free phosphate-buffered saline, counted in hemocytometers, and plated at 5 × 10^5 cells per well of 6-well plates (Nunc) in 2 cm^3 of growth medium (DMEM without phenol red with 10% CPSR1). Cells reached about 80% of confluency at day 3, and in most cases, such cells were used for the assays.
MCF-7 cells were seeded in 6-well plates and were incubated with varying concentrations of […] or chlorambucil and 0.5 μCi of [^3H]-thymidine for 24 h at 37 °C [51]. The cells were then harvested by trypsinization, washed with cold phosphate-buffered saline, and centrifuged for 10 min at 1500 g several times (4–5) until the dpm in the washes were similar to the reagent control. Radioactivity was determined by liquid scintillation counting. [^3H]-thymidine uptake was expressed as dpm/well.

[2] = system: MCF-7 human breast cancer cells; test: Cell viability (MTT) assay, MCF-7; assay type: cell-based
Procedure: (§2) The viability of MCF-7 breast cancer cells was measured by the method of Carmichael using 3-(4,5-dimethylthiazol-2-yl)-2,5-diphenyltetrazolium (Table 2). In terms of reduction in cell viability, the compounds rank in MCF-7 cells in the order chlorambucil > 4j > 4i > 4h > 4n > 4k > 4l > 4a > 4g > 4b–4f.
as §1
(§3) The assay was performed according to the method of Carmichael using 3-(4,5-dimethylthiazole-2-yl)-2,5-diphenyltetrazolium bromide (MTT). Confluent cells cultured for 24 h with various concentrations of studied compounds in 6-well plates were washed three times with PBS and then incubated for 4 h in 1 cm^3 of MTT solution (0.5 mg/cm^3 of PBS) at 37 °C in 5% CO2 in an incubator. The medium was removed and 1 cm^3 of […] HCl in absolute isopropanol was added to the cells attached. Absorbance of converted dye in the living cells was measured at a wavelength of 570 nm. Cell viability of breast cancer cells cultured in the presence of ligands was calculated as percentage of controlled cells.

[3] = system: Fibroblasts; test: DNA synthesis assay ([3H]-thymidine incorporation), fibroblasts; assay type: cell-based, human; settings: read-out: IC50 inhibition of [3H]-thymidine incorporation into DNA
[4] = system: normal human skin fibroblasts; test: Cell viability (MTT) assay, fibroblasts; assay type: cell-based
Procedure: as §2, §1, §3

[5] = system: human breast cancer cell line (MCF-7 and MDA-MB-231); design: method as in PMID 26133068; settings: cell line not specified (MCF-7 and MDA-MB-231 tested); cited from earlier work
[6] = Cell viability (MTT) assay, fibroblasts; assay type: cell-based, human
Procedure: as §2, §1, §3

[7] = MCF-7 cells, 24 h, mean ± SD of four independent experiments, read-out: IC50 inhibition of [3H]-thymidine incorporation into DNA
[8] = Fibroblasts, 24 h, mean ± SD of four independent experiments
[9] = Homo sapiens, MCF7, 24 h, read-out: IC50 cytotoxicity (cell viability, MTT)
[10] = Homo sapiens, MCF7, MCF-7 cells, 24 h, mean ± SD of four independent experiments, read-out: IC50 inhibition of [3H]-thymidine incorporation into DNA
[11] = Homo sapiens, Fibroblast, Fibroblasts, 24 h, mean ± SD of four independent experiments

| Compound | IC50 [1, 10] | IC50 [2, 9] | IC50 [3, 11] | IC50 at 24 h ([6]; human) | other results |
| --- | --- | --- | --- | --- | --- |
| 5,6-Diphenyl-1,2,4-triazine-3-yl isobutyl disulfide [Compound 4c] | – | – | – | – | IC50 [1, 7]: > 200 µM; IC50 [2]: > 200 µM; IC50 [3, 8]: > 200 µM; IC50 [4]: > 200 µM |
| 5,6-Diphenyl-1,2,4-triazine-3-yl tert-butyl disulfide [Compound 4d] | – | – | – | – | IC50 [1, 7]: > 200 µM; IC50 [2]: > 200 µM; IC50 [3, 8]: > 200 µM; IC50 [4]: > 200 µM |
| c1ccc(-c2nnc(SSc3nnc(-c4ccccc4)c(-c4ccccc4)n3)nc2-c2ccccc2)cc1 [5,5′,6,6′-tetraphenylbis(1,2,4-triazin-3-yl)disulfane] | – | – | – | – | IC50 [5]: 25 µM |
| O=C(O)CCCc1ccc(N(CCCl)CCCl)cc1 [Chlorambucil, reference compound] | – | 97 ± 2 µM | – | – | IC50 ([1]; Homo sapiens, MCF7, read-out: IC50 inhibition of [3H]-thymidine incorporation into DNA): 47 ± 2 µM; IC50 ([3]; Homo sapiens, Fibroblast): 120 ± 1 µM; IC50 at 24 h ([6]; normal human skin fibroblasts, 24 h, mean ± SD of four independent experiments, read-out: IC50 cytotoxicity (cell viability, MTT)): 150 ± 1 µM |
| CC(C)SSc1nnc(-c2ccccc2)c(-c2ccccc2)n1 [Compound 4a, 5,6-Diphenyl-1,2,4-triazine-3-yl isopropyl disulfide] | 188 ± 2 µM | 190 ± 2 µM | > 200 µM | > 200 µM | – |
| CCCCSSc1nnc(-c2ccccc2)c(-c2ccccc2)n1 [Compound 4b, 5,6-Diphenyl-1,2,4-triazine-3-yl n-butyl disulfide] | > 200 µM | > 200 µM | > 200 µM | > 200 µM | – |
| CCCCCSSc1nnc(-c2ccccc2)c(-c2ccccc2)n1 [Compound 4e, 5,6-Diphenyl-1,2,4-triazine-3-yl n-pentyl disulfide] | > 200 µM | > 200 µM | > 200 µM | > 200 µM | – |
| CCCCCCCCCCCCSSc1nnc(-c2ccccc2)c(-c2ccccc2)n1 [Compound 4f, 5,6-Diphenyl-1,2,4-triazine-3-yl n-dodecyl disulfide] | > 200 µM | > 200 µM | > 200 µM | > 200 µM | – |
| OCCCCCCCCCCCSSc1nnc(-c2ccccc2)c(-c2ccccc2)n1 [Compound 4g, 5,6-Diphenyl-1,2,4-triazine-3-yl 11-hydroxyundecyl disulfide] | 188 ± 1 µM | 197 ± 1 µM | > 200 µM | > 200 µM | – |

The remaining compounds from weak to strong by IC50 [1, 10], led by results:

| IC50 [1, 10] | Compound | IC50 [2, 9] | IC50 [3, 11] | IC50 at 24 h ([6]; human) | other results |
| --- | --- | --- | --- | --- | --- |
| 142 ± 1 µM | O=[N+]([O-])c1ccc(SSc2nnc(-c3ccccc3)c(-c3ccccc3)n2)cc1 [Compound 4l, 5,6-Diphenyl-1,2,4-triazine-3-yl 4-nitrophenyl disulfide] | 140 ± 1 µM | > 200 µM | > 200 µM | – |
| 83 ± 1 µM | Clc1ccc(SSc2nnc(-c3ccccc3)c(-c3ccccc3)n2)cc1 [Compound 4k, 5,6-Diphenyl-1,2,4-triazine-3-yl 4-chlorophenyl disulfide] | 121 ± 2 µM | > 200 µM | > 200 µM | – |
| 75 ± 2 µM | c1ccc(-c2nnc(SSc3nc4ccccc4s3)nc2-c2ccccc2)cc1 [Compound 4n, 5,6-Diphenyl-1,2,4-triazine-3-yl benzothiazol-2-yl disulfide] | 119 ± 2 µM | > 200 µM | > 200 µM | – |
| 68 ± 2 µM | c1ccc(SSc2nnc(-c3ccccc3)c(-c3ccccc3)n2)cc1 [Compound 4h, 5,6-Diphenyl-1,2,4-triazine-3-yl phenyl disulfide] | 115 ± 2 µM | > 200 µM | > 200 µM | – |
| 60 ± 2 µM | Cc1ccc(SSc2nnc(-c3ccccc3)c(-c3ccccc3)n2)cc1 [Compound 4i, 5,6-Diphenyl-1,2,4-triazine-3-yl p-tolyl disulfide] | 108 ± 1 µM | > 200 µM | > 200 µM | – |
| 59 ± 2 µM | COc1ccc(SSc2nnc(-c3ccccc3)c(-c3ccccc3)n2)cc1 [Compound 4j, 5,6-Diphenyl-1,2,4-triazine-3-yl 4-methoxyphenyl disulfide] | 102 ± 2 µM | > 200 µM | > 200 µM | – |
